Usually EC50 stands for the concentration at which the effect is half-maximal.

Like-named read-outs stand apart in the source and are kept apart here.

The target in this experiment is T1, human FXR (NR1H4) (Homo sapiens, UniProt Q96RI1).
T1 sequence (Q96RI1 1-486): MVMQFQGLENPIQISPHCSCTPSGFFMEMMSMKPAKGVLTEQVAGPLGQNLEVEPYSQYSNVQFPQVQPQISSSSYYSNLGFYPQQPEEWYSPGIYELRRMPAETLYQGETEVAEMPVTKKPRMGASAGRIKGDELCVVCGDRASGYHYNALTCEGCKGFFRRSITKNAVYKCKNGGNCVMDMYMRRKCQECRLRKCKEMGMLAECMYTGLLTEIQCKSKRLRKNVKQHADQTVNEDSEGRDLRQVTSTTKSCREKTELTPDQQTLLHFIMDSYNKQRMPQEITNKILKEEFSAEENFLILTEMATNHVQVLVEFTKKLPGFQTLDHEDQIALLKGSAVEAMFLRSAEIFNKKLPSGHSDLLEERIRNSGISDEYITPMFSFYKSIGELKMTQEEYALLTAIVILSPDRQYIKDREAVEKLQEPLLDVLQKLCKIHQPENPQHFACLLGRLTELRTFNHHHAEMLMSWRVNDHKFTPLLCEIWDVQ
The experiment is described as follows: Human FXR (NR1H4) Assay: Gal4 promoter driven luciferase reporter transactivation in CHO cells (Indigo Bioscience kit IB00601). The conditions noted are these: for Emax: CHO, read-out: Efficacy (%); for EC50: potency range, Human FXR (NR1H4) reporter assay in CHO cells, read-out: EC50. The experiment is classed as cell-based. The gist of the method: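 CHO reporter cells expressing human NR1H4 with luciferase driven by an FXR-responsive promoter (Gal4 system), run per manufacturer's kit. Compounds applied to plated cells, then incubated a further 22 hours at 37° C. Luciferase luminescence read after detection reagent as a surrogate of FXR activation, giving potency and efficacy.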
Background: A reporter such as luciferase makes a cellular process visible.

The mark [1] stands for this setting: efficacy normalized to CDCA set as 100%.

On to `COC(=O)c1cc(OC)c(NC(=O)N2C3CCC2CC(OCc2c(-c4c(Cl)cccc4Cl)noc2C2CC2)C3)cc1-c1ccccc1` (stereo not drawn) [Example 792], for which the concentration for a half-maximal effect (EC50) was less than 10 nM. Further, the Emax under setting [1] was determined as 92%.
In the case of `CCOC(=O)c1cccc(NC(=O)N2C3CCC2CC(OCc2c(-c4c(Cl)cccc4Cl)noc2C2CC2)C3)c1` (stereo not drawn) [Example 181], the concentration for a half-maximal effect (EC50) is less than 10 nM.
Take `O=C(O)c1ccc(NC(=O)N2C3CCC2CC(OCc2c(C4CCC5(CC4)CC5)noc2C2CC2)C3)c(C(F)(F)F)c1` (stereo not drawn) [Example 819]: the EC50 is 10 to 100 nM. Further, under setting [1], the Emax was found to be 11%.
As to `Cn1nnnc1-c1cccc(NC(=O)N2C3CCC2CC(OCc2c(-c4c(Cl)cccc4Cl)noc2C2CC2)C3)c1` (stereo not drawn) [Example 186], the EC50 is 10 to 100 nM.
Same read-out and setting: the result for `CS(=O)(=O)NC(=O)c1cccc(NC(=O)N2C3CCC2CC(OCc2c(-c4ccccc4OC(F)(F)F)noc2C2CC2)C3)c1` (stereo not drawn) [Example 262] reads more than 1000 nM.
In the case of `CCOc1cc(C(=O)O)ccc1NC(=O)N1C2CCC1CC(NCc1c(-c3c(Cl)cccc3Cl)noc1C1CC1)C2` (stereo not drawn) [Example 830], the EC50 was less than 10 nM. Besides, the Emax under setting [1] came to 82%.
The corresponding values for `O=C(O)c1ccc(NC(=O)N2C3CCC2CC(OCc2c(-c4c(Cl)cccc4Cl)noc2C2CC2)C3)cc1-c1ccc(C(F)(F)F)nc1` (stereo not drawn) [Example 799] are less than 10 nM and 133%.
The corresponding values for `COC(=O)c1ccc(OC)c(NC(=O)N2C3CCC2CC(OCc2c(-c4c(Cl)cccc4Cl)noc2C2CC2)C3)c1` (stereo not drawn) [Example 724] are 10 to 100 nM and 137%.
Turning to `COC(=O)c1ccc(NC(=O)N2C3CCC2CC(OCc2c(-c4c(Cl)cccc4Cl)noc2C2CC2)C3)nc1` (stereo not drawn) [Example 786], the 50% effective concentration (EC50) lay within 10 to 100 nM. The Emax under setting [1] turned out to be 44%.
For the compound `O=C(Nc1cnc2ccccc2c1)N1C2CCC1CC(OCc1c(-c3c(Cl)cccc3Cl)noc1C1CC1)C2` (stereo not drawn) [Example 21], the EC50 was in the range of 10 to 100 nM.
The same measure, in the same setting: the result for `COc1cc(C(=O)O)ccc1NC(=O)N1C2CCC1CC(OCc1c(-c3c(Cl)cccc3Cl)noc1C1CC1)C2` (stereo not drawn) [Example 192] reads less than 10 nM; that for `O=C(Nc1ccc(C(F)(F)F)cc1)N1C2CCC1CC(OCc1c(-c3c(Cl)cccc3Cl)noc1C1CC1)C2` (stereo not drawn) [Example 8], 100 to 1000 nM.
Take `CC1(S(=O)(=O)NC(=O)c2ccc(NC(=O)N3C4CCC3CC(OCc3c(-c5c(Cl)cccc5Cl)noc3C3CC3)C4)cc2-c2cncnc2)CC1` (stereo not drawn) [Example 790]: the concentration giving a half-maximal response (EC50) was 10 to 100 nM. For the same compound, under setting [1], the Emax was determined as 49%.
The corresponding values for `COc1c(NC(=O)N2C3CCC2CC(OCc2c(-c4ccccc4OC(F)(F)F)noc2C2CC2)C3)cccc1C(=O)OC(C)(C)C` (stereo not drawn) [Example 760] are more than 1000 nM and 180%.
As to `CCOC(=O)c1ccc2c(c1)CCN2C(=O)N1C2CCC1CC(OCc1c(-c3ccccc3OC(F)(F)F)noc1C1CC1)C2` (stereo not drawn) [Example 591], the Emax came to 166% and the EC50 was more than 1000 nM.
`CC(C)Oc1cc(C(=O)O)ccc1NC(=O)N1C2CCC1CC(OCc1c(-c3c(Cl)cccc3Cl)noc1C1CC1)C2` (stereo not drawn) [Example 721]: the concentration giving a half-maximal response (EC50) fell in the range of 10 to 100 nM. Moreover, the Emax under setting [1] was 133%.
The corresponding values for `COc1cccc(C(=O)O)c1NC(=O)N1C2CCC1CC(OCc1c(-c3ccccc3OC(F)(F)F)noc1C1CC1)C2` (stereo not drawn) [Example 762] are 100 to 1000 nM and 6%.
`O=C(O)c1ccc(NC(=O)N2C3CCC2CC(OCc2c(-c4c(Cl)cccc4Cl)noc2C2CC2)C3)c(OC(F)(F)F)c1` (stereo not drawn) [Example 717]: the EC50 was in the range of 100 to 1000 nM. Besides, the Emax under setting [1] worked out at 149%.
For the compound `CN1CCC(c2cccc(NC(=O)N3C4CCC3CC(OCc3c(-c5c(Cl)cccc5Cl)noc3C3CC3)C4)c2)CC1` (stereo not drawn) [Example 5], the EC50 lay within 10 to 100 nM.
Consider `CCOc1cc(C(=O)O)ccc1NC(=O)N1C2CCC1CC(OCc1c(-c3c(F)cccc3F)noc1C1CC1)C2` (stereo not drawn) [Example 810], for which the EC50 lay within 10 to 100 nM. Further, the Emax under setting [1] turned out to be 64%.
Take `O=C(Nc1cc(-c2cccnc2)cc(C(F)(F)F)c1)N1C2CCC1CC(OCc1c(-c3c(Cl)cccc3Cl)noc1C1CC1)C2` (stereo not drawn) [Example 14]: the 50% effective concentration (EC50) is less than 10 nM.
Turning to `COC(=O)c1ccc2c(c1)N(C(=O)N1C3CCC1CC(OCc1c(-c4ccccc4OC(F)(F)F)noc1C1CC1)C3)CC2` (stereo not drawn) [Example 589], the Emax turned out to be 76% and the EC50 is more than 1000 nM.
`O=C(Nc1cccc(-c2cnn(C3CCOCC3)c2)c1)N1C2CCC1CC(OCc1c(-c3c(Cl)cccc3Cl)noc1C1CC1)C2` (stereo not drawn) [Example 708]: the 50% effective concentration (EC50) was less than 10 nM. Also, under setting [1], the Emax is 209%.
The matching figures for `O=C(O)c1cccc(NC(=O)N2C3CCC2CC(OCc2c(-c4ccccc4OC(F)(F)F)noc2C2CC2)C3)c1F` (stereo not drawn) [Example 746]: more than 1000 nM and 156%.
Consider `O=C(Nc1ccncc1)N1C2CCC1CC(OCc1c(-c3c(Cl)cccc3Cl)noc1C1CC1)C2` (stereo not drawn) [Example 17], for which the half-maximal effective concentration (EC50) is 10 to 100 nM.
For the compound `O=C(O)c1ccc(NC(=O)N2C3CCC2CC(OCc2c(-c4c(F)cccc4F)noc2C2CC2)C3)c(F)c1` (stereo not drawn) [Example 808], the EC50 is 10 to 100 nM. Moreover, under setting [1], the Emax is 32%.
The corresponding values for `O=C(O)c1ccc(NC(=O)N2C3CCC2CC(OCc2c(-c4ccccc4C4CC4)noc2C2CC2)C3)c(C(F)(F)F)c1` (stereo not drawn) [Example 820] are 10 to 100 nM and 13%.
Turning to `COC(=O)c1ccc(NC(=O)N2C3CCC2CC(OCc2c(-c4c(Cl)cccc4Cl)noc2C2CC2)C3)cc1C(F)(F)F` (stereo not drawn) [Example 194], the 50% effective concentration (EC50) was less than 10 nM.
As to `O=C(Nc1ccc(F)c(C(F)(F)F)c1)N1C2CCC1CC(OCc1c(-c3c(Cl)cccc3Cl)noc1C1CC1)C2` (stereo not drawn) [Example 702], the concentration for a half-maximal effect (EC50) was less than 10 nM. Moreover, the Emax under setting [1] came to 258%.
Turning to `NS(=O)(=O)c1cccc(NC(=O)N2C3CCC2CC(OCc2c(-c4c(Cl)cccc4Cl)noc2C2CC2)C3)c1` (stereo not drawn) [Example 24], the EC50 was 100 to 1000 nM.
For the compound `O=C(O)c1ccc2c(c1)N(C(=O)N1C3CCC1CC(OCc1c(-c4ccccc4OC(F)(F)F)noc1C1CC1)C3)CC2` (stereo not drawn) [Example 590], the Emax was 67% and the EC50 was more than 1000 nM.
On to `COC(=O)c1ccc(NC(=O)N2C3CCC2CC(OCc2c(-c4c(Cl)cccc4Cl)noc2C2CC2)C3)c(OC)c1` (stereo not drawn) [Example 190], for which the EC50 was in the range of 10 to 100 nM.
With `CCOC(=O)c1ccc2c(c1)N(C(=O)N1C3CCC1CC(OCc1c(-c4ccccc4OC(F)(F)F)noc1C1CC1)C3)CCC2` (stereo not drawn) [Example 595], the Emax is 7% and the EC50 was more than 1000 nM.
On to `O=C(O)c1ccc(NC(=O)N2C3CCC2CC(OCc2c(C4CCC5(CC4)CC5)noc2C2CC2)C3)c(F)c1` (stereo not drawn) [Example 285], for which the half-maximal effective concentration (EC50) lay in the range of 10 to 100 nM.
With `CCOc1cc(C(=O)O)ccc1NC(=O)N1C2CCC1CC(OCc1c(-c3ccccc3OC(F)(F)F)noc1C1CC1)C2` (stereo not drawn) [Example 823], the EC50 was in the range of 10 to 100 nM. Besides, the Emax under setting [1] worked out at 112%.
The matching figures for `C[C@H](NC(=O)N1C2CCC1CC(OCc1c(-c3c(Cl)cccc3Cl)noc1C1CC1)C2)c1ccccc1` (stereo partly drawn) [Example 705]: less than 10 nM and 242%.
The corresponding values for `CCOC(=O)c1ccc(NC(=O)N2C3CCC2CC(OCc2c(-c4c(Cl)cccc4Cl)noc2C2CC2)C3)cc1-c1cncnc1` (stereo not drawn) [Example 778] are less than 10 nM and 248%.
The corresponding values for `COC(=O)c1ccc(NC(=O)N2C3CCC2CC(OCc2c(-c4c(Cl)cccc4Cl)noc2C2CC2)C3)c(C(F)(F)F)c1` (stereo not drawn) [Example 709] are 100 to 1000 nM and 119%.
`COC(=O)c1ccc(NC(=O)N2C3CCC2CC(OCc2c(-c4ccccc4OC(F)(F)F)noc2C2CC2)C3)c(F)c1` (stereo not drawn) [Example 745]: the EC50 fell in the range of 100 to 1000 nM.
`O=C(NCc1ccc(-c2ccccc2)cc1)N1C2CCC1CC(OCc1c(-c3c(Cl)cccc3Cl)noc1C1CC1)C2` (stereo not drawn) [Example 738]: the EC50 fell in the range of 100 to 1000 nM. In addition, the Emax under setting [1] was determined as 139%.
On to `O=C(O)c1ccc(NC(=O)N2C3CCC2CC(OCc2c(-c4c(Cl)cccc4Cl)noc2C2CC2)C3)cc1-c1ccccc1` (stereo not drawn) [Example 201], for which the concentration giving a half-maximal response (EC50) was less than 10 nM.
For `O=C(O)c1ccc(NC(=O)N2C3CCC2CC(OCc2c(-c4ccccc4C4CC4)noc2C2CC2)C3)c(F)c1` (stereo not drawn) [Example 809], the 50% effective concentration (EC50) lay in the range of 10 to 100 nM. Besides, the Emax under setting [1] came out at 43%.
With `C[C@@H](NC(=O)N1C2CCC1CC(OCc1c(-c3c(Cl)cccc3Cl)noc1C1CC1)C2)c1ccccc1` (stereo partly drawn) [Example 694], the Emax turned out to be 124% and the 50% effective concentration (EC50) is 100 to 1000 nM.
Turning to `O=C(O)c1ccc(NC(=O)N2C3CCC2CC(OCc2c(-c4c(F)cccc4F)noc2C2CC2)C3)cc1-c1ccccc1` (stereo not drawn) [Example 816], the EC50 was in the range of 10 to 100 nM. In addition, the Emax under setting [1] is 36%.
As to `O=C(O)c1cnc2ccc(NC(=O)N3C4CCC3CC(OCc3c(-c5c(Cl)cccc5Cl)noc3C3CC3)C4)cc2c1` (stereo not drawn) [Example 211], the 50% effective concentration (EC50) lay within 100 to 1000 nM.
In the case of `COC(=O)c1ccc(NC(=O)N2C3CCC2CC(OCc2c(-c4c(Cl)cccc4Cl)noc2C2CC2)C3)cc1-c1ccc(C(F)(F)F)nc1` (stereo not drawn) [Example 796], the EC50 was less than 10 nM. Further, the Emax under setting [1] worked out at 95%.
The corresponding values for `COc1c(NC(=O)N2C3CCC2CC(OCc2c(-c4ccccc4OC(F)(F)F)noc2C2CC2)C3)cccc1C(=O)O` (stereo not drawn) [Example 761] are more than 1000 nM and 105%.

The values above are taken from patent publication US10597391B2, “Urea-containing isoxazole derivatives as FXR agonists and methods of use thereof” (Enanta Pharmaceuticals, Inc., priority 2016, dated 2020).
